Data published in patent publication US11059855B2, “Antimicrobial peptides and methods of making and using same” (priority 2017, dated 2021).

What was measured:
[1] = Membrane selectivity from high-throughput dye leakage screen; type: biochemical; details: PC = POPC, PG = POPG
From the text: (§1) This detects and quantifies the release of a small fluorescent dye (ANTS/DPX; MW=˜400 Da) encapsulated in LUVs after addition of library peptides. Neutral POPC LUVs serve as a simple model for mammalian membranes, while charged POPG LUVs mimic bacterial membranes enriched in anionic lipids.

[2] = provided by the distributor, GenScript; cited from earlier work
[3] = Pore-size characterization by 3-kDa dextran release; type: biochemical; details: ‡Large pore for PG only
From the text: Eight LDKA peptides with different lipid selectivity and pore sizes were selected from the high-throughput screen and sequenced. […] The most common mutation is L to A, occurred 13 times and in 7 out of the 8 peptides, followed by A to L, which occurred 6 times in 5 peptides, L to D which occurred 3 times in 3 peptides, and L to P that occurred once. Lysine (K) is not favorable to be shown at the position 6, 8, 10, 12, and 13, which is the non-polar face of the helical structure. […] More specifically, the analogs only induce leakage from anionic POPG vesicles have 4-5 leucines, which is less than the analogs that can porate both POPC and POPG vesicles and have 6-7 leucines in their sequences.

S. aureus = test: Bacterial minimum inhibitory concentration (MIC), S. aureus; type: cell-based, Staphylococcus aureus; details: 75 μM maximum tested; NDA = not determinable
Method: (§2) Escherichia colt strain ATCC 25922, Staphylococcus aureus strain ATCC 25923, and Pseudomonas aeruginosa strain ATCC PAO1 were used in this study. Overnight cultures were subcultured to log phase (OD600=0.3-0.6) after which cell counts were determined by measuring the OD600 (OD600 1.0=1.5×10^8 CFU/mL for S. aureus, 5×10^8 CFU/mL for E. colt, and 2.04×10^8 CFU/mL for P. aeruginosa). Bacteria in minimal media mere added to serially diluted peptides and incubated for 3 hr, followed by the addition of full growth media. After overnight incubation, the optical density of the wells was recorded on a plate reader to determine whether they were sterilized (OD<0.08) or were at stationary phase growth (OD600>0.5). Intermediate values, which were rare, were considered positive for growth. Average minimum sterilizing concentrations were calculated from the lowest peptide concentration that sterilized the bacteria in each serial dilution. The samples were done in sextuplet.

[4] = ANTS/DPX leakage assay, POPG; type: biochemical; details: P:L = 1:1000, pH 7 phosphate buffer
Method: (§3) 5 mM ANTS and 12.5 mM DPX were entrapped in 0.1 μm diameter extruded vesicles with lipids. Gel filtration chromatography of Sephadex G-100 (GE Healthcare Life Sciences Inc.) was used to remove external free ANTS/DPX from LUVs with entrapped contents. […] Leakage was measured after 3 hr incubation. 10% Triton was used as the positive control to measure the maximum leakage of the vesicle. Fluorescence emission spectra were recorded using excitation wavelength (Ex: 350 nm) and emission wavelength (Em: 510 nm) for ANTS/DPX using Synergy H1 Hybrid Multi-Mode Reader.
as §1

[5] = 3-kDa dextran macromolecule release assay, POPG; type: biochemical; details: P:L = 1:1000, pH 7 phosphate buffer
[6] = Circular dichroism secondary structure (Dichroweb), with POPG; type: physicochemical
Method: (§4) Dichroweb software analyzes the secondary structure of LDKA peptides from circular dichroism spectroscope. The table presents the percentage of each helix and strand structure at different temperature. The data are analyzed using CONTIN-LL method and Reference Set 4 (Optimised for 190-240 nm).
(§5) Peptide solutions (peptide concentration is 50 μM) were titrated with POPC and POPG LUVs (50, 100, 250, 500, 1000 μM) and the corresponding changes CD spectra collected. Analysis of these spectra using CD tools and Dichroweb provides an ensemble average of the changes in secondary structure in the presence of POPC and POPG LUVs (dichroweb.cryst.bbk.ac.uk), which gives a direct measure of the binding free energies for each peptide.

[7] = ANTS/DPX leakage assay, POPC; type: biochemical; details: P:L = 1:1000, pH 7 phosphate buffer
Method: as §3, §1

[8] = test system: methicillin-resistant Staphylococcus aureus (MRSA); type: cell-based; details: 75 μM maximum tested; NDA = not determinable
Escherichia coli biofilm = test: Activity against biofilm, E. coli; type: cell-based; details: 67-150 μM peptide, 3 hr treatment
Method: Selected analogues were tested with each (13A). Escherichia coli biofilm, (13B). Staphylococcus aureus biofilm, and (13C) Pseudomonas aeruginosa biofilm.
However, most of the LDKA analogues fail to treat S. aureus and P. aeruginosa biofilms. Only K7H and 7F3 are capable to reduce S. aureus biofilms by ˜50% with 100 μM peptide concentration, and none of the analogues work against P. aeruginosa biofilms (FIGS. 13a-13c).

P. aeruginosa = test: Bacterial minimum inhibitory concentration (MIC), P. aeruginosa; type: cell-based, Pseudomonas aeruginosa; details: 75 μM maximum tested; NDA = not determinable
Method: as §2

[9] = Circular dichroism secondary structure (Dichroweb), peptide only; type: physicochemical; details: 20 °C
Method: as §4, §5

[10] = Circular dichroism secondary structure (Dichroweb), with POPC; type: physicochemical
Method: as §4, §5

Substance | Membrane selectivity (POPC vs POPG vesicles) [1] | Solubility, DMSO [2] [mg/mL] | Solubility, DPBS pH 7.1 [2] [mg/mL] | Solubility, Ultrapure Water [2] [mg/mL] | Pore size [3] | Minimum Inhibitory Concentration, S. aureus (S. aureus) | ANTS/DPX release, POPG [4] [%] | 3-kDa Dextran release, POPG [5] [%] | Peptide-POPG, Helix ([6]; 20 °C) [%] | Peptide-POPG, Strand ([6]; 20 °C) [%] | Peptide-POPG, Helix ([6]; 45 °C) [%] | Peptide-POPG, Strand ([6]; 45 °C) [%] | Peptide-POPG, Helix ([6]; 70 °C) [%] | Peptide-POPG, Strand ([6]; 70 °C) [%] | Peptide-POPG, Helix ([6]; 95 °C) [%] | Peptide-POPG, Strand ([6]; 95 °C) [%] | ANTS/DPX release, POPC [7] [%] | Minimum Inhibitory Concentration, MRSA [8] | Elimination of E. coli biofilm (Escherichia coli biofilm) [%] | Minimum Inhibitory Concentration, P. aeruginosa (P. aeruginosa) | also measured
H-GLADAAKLLLKAAGW-NH2 [Peptide 11D12] | PG > PC | 20 | 10 | 10 | Large | NDA | 101 | 58 | 96 | 0 | 92 | 0 | 90 | 0 | 77 | 1 | 8 | NDA | ~50 | NDA | Peptide-only, Strand [9]: 8%; Peptide-POPC, Helix ([10]; 20 °C): 38%; Peptide-POPC, Strand ([10]; 20 °C): 12%; Peptide-POPC, Helix ([10]; 45 °C): 39%; Peptide-POPC, Strand ([10]; 45 °C): 10%; Peptide-POPC, Helix ([10]; 70 °C): 39%; Peptide-POPC, Strand ([10]; 70 °C): 9%; Peptide-POPC, Helix ([10]; 95 °C): 33%; Peptide-POPC, Strand ([10]; 95 °C): 12%
H-GLLDAAKLLAKAAGW-NH2 [Peptide 24F1] | PG > PC | 15 | 5 | 10 | Large | NDA | 100 | 69 | 91 | 0 | 88 | 1 | 77 | 1 | 66 | 2 | 15 | NDA | ~50 | 66 µM | Peptide-only, Strand [9]: 14%; Peptide-POPC, Helix ([10]; 20 °C): 32%; Peptide-POPC, Strand ([10]; 20 °C): 16%; Peptide-POPC, Helix ([10]; 45 °C): 32%; Peptide-POPC, Strand ([10]; 45 °C): 16%; Peptide-POPC, Helix ([10]; 70 °C): 27%; Peptide-POPC, Strand ([10]; 70 °C): 17%; Peptide-POPC, Helix ([10]; 95 °C): 24%; Peptide-POPC, Strand ([10]; 95 °C): 22%
H-GLLDLPKALAKALGW-NH2 [Peptide 7G6] | PG > PC | 15 | 15 | 10 | Small | NDA | 105 | -1 | 86 | 2 | 87 | 2 | 82 | 3 | 75 | 3 | 48 | NDA | ~50 | NDA | Peptide-only, Strand [9]: 10%; Peptide-POPC, Helix ([10]; 20 °C): 49%; Peptide-POPC, Strand ([10]; 20 °C): 10%; Peptide-POPC, Helix ([10]; 45 °C): 56%; Peptide-POPC, Strand ([10]; 45 °C): 6%; Peptide-POPC, Helix ([10]; 70 °C): 47%; Peptide-POPC, Strand ([10]; 70 °C): 10%; Peptide-POPC, Helix ([10]; 95 °C): 30%; Peptide-POPC, Strand ([10]; 95 °C): 20%
